Data from the Kinase Knowledgebase extract (Sharma et al. 2016).
pIC50: −log10 of the molar value. Where “and” joins values, the source holds several entries; their conditions need not be identical. Equal values may be shown once.

What follows are compounds tested against PIK3CD (Human) (UniProt O00329) (assay: Assessment of PIK3CD Kinase Activity).
Chain of PIK3CD (Human) (O00329 whole entry, looked up): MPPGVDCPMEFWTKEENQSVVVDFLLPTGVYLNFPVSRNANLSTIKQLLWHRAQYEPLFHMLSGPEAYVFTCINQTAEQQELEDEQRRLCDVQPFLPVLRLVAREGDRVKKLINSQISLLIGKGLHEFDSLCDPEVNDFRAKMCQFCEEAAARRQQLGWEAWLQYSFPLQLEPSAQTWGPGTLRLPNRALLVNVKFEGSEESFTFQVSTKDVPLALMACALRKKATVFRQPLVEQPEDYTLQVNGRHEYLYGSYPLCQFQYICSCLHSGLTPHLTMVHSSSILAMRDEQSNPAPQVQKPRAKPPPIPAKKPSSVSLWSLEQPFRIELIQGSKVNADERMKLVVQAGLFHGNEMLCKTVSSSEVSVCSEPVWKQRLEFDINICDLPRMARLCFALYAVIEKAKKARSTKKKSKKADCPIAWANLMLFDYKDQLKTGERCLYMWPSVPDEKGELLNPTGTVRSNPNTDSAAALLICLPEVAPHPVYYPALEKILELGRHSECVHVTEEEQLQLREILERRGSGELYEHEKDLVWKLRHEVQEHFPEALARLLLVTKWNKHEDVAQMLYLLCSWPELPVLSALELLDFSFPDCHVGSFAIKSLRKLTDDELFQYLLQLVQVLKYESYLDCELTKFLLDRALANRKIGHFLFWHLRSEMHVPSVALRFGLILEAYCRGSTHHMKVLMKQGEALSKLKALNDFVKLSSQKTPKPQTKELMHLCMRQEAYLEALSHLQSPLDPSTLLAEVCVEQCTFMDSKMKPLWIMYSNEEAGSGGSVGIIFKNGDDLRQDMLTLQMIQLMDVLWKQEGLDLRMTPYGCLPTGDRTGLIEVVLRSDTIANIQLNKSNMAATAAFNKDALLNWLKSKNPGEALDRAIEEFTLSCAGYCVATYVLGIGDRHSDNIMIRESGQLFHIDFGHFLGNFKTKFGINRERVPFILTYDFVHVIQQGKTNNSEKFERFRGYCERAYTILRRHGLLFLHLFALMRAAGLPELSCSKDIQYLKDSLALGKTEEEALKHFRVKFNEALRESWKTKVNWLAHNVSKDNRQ

| SMILES | pIC50 |
| --- | --- |
| COC1CCN(c2c(C(C)Nc3ncnc4[nH]cnc34)cc(Cl)c3cccnc23)CC1 (centres undefined) | 7.00 to 7.30 |
| CC(Nc1ncnc2[nH]cnc12)c1cc(Cl)c2cccnc2c1N1CCC(C#N)CC1 (centres undefined) | 6.60 to 7.00 |
| CC(Nc1ncnc2[nH]cnc12)c1cc(Cl)c2cccnc2c1-c1cccc(F)c1 (centres undefined) | > 7.30 |
| Cc1cc(C(C)Nc2ncnc3[nH]cnc23)c(-c2cccc(F)c2)c2nnccc12 (centres undefined) | > 7.30 and 6.00 to 6.30 |
| COC[C@H]1CCCN1c1c(C(C)Nc2ncnc3[nH]cnc23)cc(Cl)c2cccnc12 (some centres undefined) | 6.60 to 7.00 |
| CC(Nc1ncnc2[nH]cnc12)c1ccc2ccccc2c1-c1cncc(F)c1 (centres undefined) | > 7.30 |
| CCc1cc(C(C)Nc2ncnc3[nH]cnc23)c(-c2cccc(F)c2)c2ncccc12 (centres undefined) | 7.00 to 7.30 |
| CC(Nc1ncnc2[nH]cnc12)c1cc(Cl)c2ccnnc2c1-c1ccccc1F (centres undefined) | > 7.30 and 7.00 to 7.30 and 6.30 to 6.60 |
| COC(=O)N[C@H]1CCN(c2c(C(C)Nc3ncnc4[nH]cnc34)cc(Cl)c3cccnc23)C1 (some centres undefined) | 7.00 to 7.30 and > 7.30 |
| CC(Nc1ncnc2[nH]cnc12)c1nc(C#N)c2ccccc2c1-c1cccc(F)c1 (centres undefined) | 7.00 to 7.30 |
| Fc1cccc(-c2c(CNc3ncnc4[nH]cnc34)cc(Cl)c3ccnnc23)c1 | 6.00 to 6.30 |
| CC(Nc1ncnc2[nH]cnc12)c1cc(Cl)c2ccncc2c1N1CC[C@H](F)C1 (some centres undefined) | 6.30 to 6.60 |
| CC(Nc1ncnc2[nH]cnc12)c1cc(Cl)c2cccnc2c1N1CCN(C(=O)c2cccc(F)c2)CC1 (centres undefined) | 6.60 to 7.00 |
| CC(Nc1ncnc2[nH]cnc12)c1cc(Cl)c2conc2c1-c1cccc(F)c1 (centres undefined) | > 7.30 |
| CC(Nc1ncnc2[nH]cnc12)c1cc(Cl)c2cccnc2c1N1CCN(CC(=O)N(C)C)CC1 (centres undefined) | > 7.30 |
| CC(Nc1ncnc2[nH]cnc12)c1cc(Cl)c2cccnc2c1N1CCC(C#N)C1 (centres undefined) | 6.60 to 7.00 |
| CC(=O)N1CCC(C(=O)N2CCN(c3c(C(C)Nc4ncnc5[nH]cnc45)cc(Cl)c4cccnc34)CC2)CC1 (centres undefined) | > 7.30 |
| Cc1cc(C(C)Nc2ncnc3[nH]cnc23)c(-c2cccc(F)c2)c2ncccc12 (centres undefined) | 6.60 to 7.00 |

| SMILES | pIC50 |
| --- | --- |
| CC(Nc1ncnc2[nH]cnc12)c1cc(F)c2ccnnc2c1-c1cccc(F)c1 (centres undefined) | 6.60 to 7.00 and > 7.30 |
| CCC(=O)N[C@H]1CCN(c2c(C(C)Nc3ncnc4[nH]cnc34)cc(Cl)c3cccnc23)C1 (some centres undefined) | > 7.30 |
| COC(=O)NC1CCN(c2c(C(C)Nc3ncnc4[nH]cnc34)cc(Cl)c3cccnc23)CC1 (centres undefined) | > 7.30 |
| CC(Nc1ncnc2[nH]cnc12)c1cc(Cl)c2cccnc2c1N1CCN(CCO)CC1 (centres undefined) | > 7.30 |
| CC(Nc1ncnc2[nH]cnc12)c1cc(F)c2cccnc2c1N1CCN(C(=O)c2cnn(C)c2)CC1 (centres undefined) | > 7.30 |
| CC(Nc1ncnc2[nH]cnc12)c1cc(Cl)c2cccnc2c1N1CCN(Cc2ccncc2)CC1 (centres undefined) | > 7.30 |
| CC(Nc1ncnc2[nH]cnc12)c1cc(Cl)c2cccnc2c1N1CCN(C(=O)c2ccccc2F)CC1 (centres undefined) | 6.30 to 6.60 |
| CC(Nc1ncnc2[nH]cnc12)c1cc(Cl)c2cccnc2c1N1CCC(CO)CC1 (centres undefined) | 6.60 to 7.00 |
| Cc1cc(C(C)Nc2ncnc3[nH]cnc23)c(-c2cc(F)cc(F)c2)c2nnccc12 (centres undefined) | > 7.30 |
| CC(Nc1ncnc2[nH]cnc12)c1cc(Cl)c2cccnc2c1N1CCC(c2ccccc2)C1 (centres undefined) | 6.30 to 6.60 |
| CC(Nc1ncnc2[nH]cnc12)c1cc(Cl)c2ccncc2c1-c1cccc(F)c1 (centres undefined) | > 7.30 |
| CC(Nc1ncnc2[nH]cnc12)c1cc(Cl)c2cn[nH]c2c1-c1cc(F)cc(F)c1 (centres undefined) | > 7.30 |
| CC(=O)N[C@H]1CCN(c2c(C(C)Nc3ncnc4[nH]cnc34)cc(Cl)c3cccnc23)C1 (some centres undefined) | > 7.30 |
| CC(Nc1ncnc2[nH]cnc12)c1cc(Cl)c2ccnnc2c1-c1cncc(F)c1 (centres undefined) | 7.00 to 7.30 |
| COC1CCCN(c2c(C(C)Nc3ncnc4[nH]cnc34)cc(Cl)c3cccnc23)C1 (centres undefined) | 6.30 to 6.60 and 6.60 to 7.00 |
| CC(=O)NC1CCN(c2c(C(C)Nc3ncnc4[nH]cnc34)cc(Cl)c3cccnc23)CC1 (centres undefined) | > 7.30 |
| COCCN1CCN(c2c(C(C)Nc3ncnc4[nH]cnc34)cc(Cl)c3cccnc23)CC1 (centres undefined) | > 7.30 |
| CC(Nc1ncnc2[nH]cnc12)c1cc(Cl)c2cccnc2c1N1CC[C@@H](O)C1 (some centres undefined) | > 7.30 |

Continued, values first:

| pIC50 | SMILES |
| --- | --- |
| > 7.30 | C[C@H](Nc1ncnc2[nH]cnc12)c1cc(F)c2cccnc2c1-c1cccc(F)c1 |
| 6.00 to 6.30 | CC(Nc1ncnc2[nH]cnc12)c1ccc2cccnc2c1-c1cc(F)cc(F)c1 (centres undefined) |
| 7.00 to 7.30 | CC(Nc1ncnc2[nH]cnc12)c1cc(Cl)c2cccnc2c1N1CCC(N2CCCCC2)CC1 (centres undefined) |
| > 7.30 | CC(Nc1ncnc2[nH]cnc12)c1cc(Cl)c2cccnc2c1N1CCN(C2CC2)CC1 (centres undefined) |
| > 7.30 | CC(Nc1ncnc2[nH]cnc12)c1cc(Cl)c2cccnc2c1N1CCN(C(=O)C2CC2)CC1 (centres undefined) |
| 6.00 to 6.30 | COc1ccc(-c2c(C(C)Nc3ncnc4[nH]cnc34)cc(Cl)c3ccnnc23)cc1F (centres undefined) |
| 6.30 to 6.60 and > 7.30 | CC(Nc1ncnc2[nH]cnc12)c1cc(Cl)c2cccnc2c1N1CC[C@H](NS(C)(=O)=O)C1 (some centres undefined) |
| 6.60 to 7.00 | CC(Nc1ncnc2[nH]cnc12)c1ccc2ccccc2c1-c1cccc(F)c1 (centres undefined) |
| 6.00 to 6.30 | CC(Nc1ncnc2[nH]cnc12)c1ccc2cccnc2c1-c1cncc(F)c1 (centres undefined) |
| 6.60 to 7.00 | CC(Nc1ncnc2[nH]cnc12)c1cc(Cl)c2cccnc2c1N1CCC(NS(C)(=O)=O)CC1 (centres undefined) |
| > 7.30 | CC(Nc1ncnc2[nH]cnc12)c1cc(Cl)c2cccnc2c1N1CCC(O)CC1 (centres undefined) |
| > 7.30 | COC(=O)N1CCN(c2c(C(C)Nc3ncnc4[nH]cnc34)cc(Cl)c3cccnc23)CC1 (centres undefined) |
| > 7.30 | CC(Nc1ncnc2[nH]cnc12)c1cc(F)c2cccnc2c1N1CCN(C2CCC2)CC1 (centres undefined) |
| 6.30 to 6.60 | CC(Nc1ncnc2[nH]cnc12)c1cc(Cl)c2cccnc2c1N1CCCC(F)C1 (centres undefined) |
| > 7.30 | CC(Nc1ncnc2[nH]cnc12)c1cc(Cl)c2cccnc2c1N1CCC[C@H](O)C1 (some centres undefined) |
| > 7.30 | CC(Nc1ncnc2[nH]cnc12)c1cc(Cl)c2cccnc2c1N1CCN(C(=O)c2cccnc2)CC1 (centres undefined) |
| 6.60 to 7.00 | CC(Nc1ncnc2[nH]cnc12)c1cc(F)c2ccnnc2c1-c1cc(F)cc(F)c1 (centres undefined) |
| > 7.30 | CC(Nc1nc(N)nc2[nH]cnc12)c1cc(F)c2ccnnc2c1-c1cccc(F)c1 (centres undefined) |
| > 7.30 | CC(Nc1ncnc2[nH]cnc12)c1cc(Cl)c2cn[nH]c2c1-c1cccc(F)c1 (centres undefined) |
| 6.60 to 7.00 | CC(Nc1ncnc2[nH]cnc12)c1cc(Cl)c2cccnc2c1N1CCN(C(=O)c2ccc(F)cc2)CC1 (centres undefined) |
| > 7.30 | C[C@@H](Nc1ncnc2[nH]cnc12)c1cc(F)c2cccnc2c1-c1cccc(F)c1 |
| > 7.30 | CC(Nc1ncnc2[nH]cnc12)c1cc(Cl)c2cccnc2c1N1CCN(C(=O)c2ccn(C)n2)CC1 (centres undefined) |
| > 7.30 | CCC(Nc1ncnc2[nH]cnc12)c1cc(Cl)c2ccnnc2c1-c1cccc(F)c1 (centres undefined) |
| 6.60 to 7.00 | Cc1nc(C(C)Nc2ncnc3[nH]cnc23)c(-c2cccc(F)c2)c2ccccc12 (centres undefined) |
| 6.60 to 7.00 | CC(Nc1ncnc2[nH]cnc12)c1cc(Cl)c2cccnc2c1N1CCC(CCO)CC1 (centres undefined) |
| 6.60 to 7.00 | CC(Nc1ncnc2[nH]cnc12)c1cc(Cl)c2ccccc2c1-c1cccc(F)c1 (centres undefined) |
| 6.00 to 6.30 | CC(Nc1ncnc2[nH]cnc12)c1ccc2cccnc2c1-c1ccccc1F (centres undefined) |

| pIC50 | SMILES |
| --- | --- |
| > 7.30 | CC(Nc1ncnc2[nH]cnc12)c1cc(Cl)c2ccnnc2c1-c1cc(F)cc(F)c1 (centres undefined) |
| 6.00 to 6.30 | CC(Nc1ncnc2[nH]cnc12)c1cc(Cl)c2ccnnc2c1-c1ccnc(F)c1 (centres undefined) |
| 6.00 to 6.30 | CC(Nc1nc(N)nc2[nH]cnc12)c1ccc2ccccc2c1-c1cccc(F)c1 (centres undefined) |
| > 7.30 | CC(Nc1ncnc2[nH]cnc12)c1cc(Cl)c2cnn(C)c2c1-c1cc(F)cc(F)c1 (centres undefined) |
| > 7.30 | CC(Nc1ncnc2[nH]cnc12)c1cc(Cl)c2ccccc2c1N1CCC(O)CC1 (centres undefined) |
| 6.60 to 7.00 and > 7.30 | CC(Nc1ncnc2[nH]cnc12)c1cc(Cl)c2cccnc2c1-c1ccccc1F (centres undefined) |
| 7.00 to 7.30 | CC(Nc1ncnc2[nH]cnc12)c1cc(C#N)c2cccnc2c1-c1cccc(F)c1 (centres undefined) |
| > 7.30 | Cc1cc(C(=O)N2CCN(c3c(C(C)Nc4ncnc5[nH]cnc45)cc(Cl)c4cccnc34)CC2)no1 (centres undefined) |
| > 7.30 | CC(Nc1nc(N)nc2[nH]cnc12)c1ccc2ccccc2c1-c1cncc(F)c1 (centres undefined) |
| 6.60 to 7.00 | CC(Nc1ncnc2[nH]cnc12)c1cc(Cl)c2cccnc2c1N1CCCC(CO)C1 (centres undefined) |
| > 7.30 | CC(Nc1ncnc2[nH]cnc12)c1cc(Cl)c2cccnc2c1N1CCN(C(=O)N(C)C)CC1 (centres undefined) |
| 7.00 to 7.30 | CC(Nc1ncnc2[nH]cnc12)c1cc(Cl)c2cccnc2c1N1CCN(C2CCCCC2)CC1 (centres undefined) |
| > 7.30 | CC(C)C(=O)N[C@H]1CCN(c2c(C(C)Nc3ncnc4[nH]cnc34)cc(Cl)c3cccnc23)C1 (some centres undefined) |
| > 7.30 | CC(Nc1ncnc2[nH]cnc12)c1cc(Cl)c2cccnc2c1N1CCN(C(=O)c2ccccn2)CC1 (centres undefined) |
| 6.60 to 7.00 | CC(Nc1ncnc2[nH]cnc12)c1cc(Cl)c2cccnc2c1N1CCC(F)CC1 (centres undefined) |
| 7.00 to 7.30 | CC(Nc1ncnc2[nH]cnc12)c1cc(Cl)c2cccnc2c1N1CCN(C(=O)c2ccccc2)CC1 (centres undefined) |
| 6.60 to 7.00 | CC(Nc1ncnc2[nH]cnc12)c1cc(F)c2cccnc2c1N1CC[C@@H](O)C1 (some centres undefined) |
| > 7.30 | CC(Nc1ncnc2[nH]cnc12)c1cc(Cl)c2cccnc2c1N1CCN(C(=O)c2cnccn2)CC1 (centres undefined) |
| > 7.30 | CC(Nc1ncnc2[nH]cnc12)c1cc(Cl)c2cccnc2c1N1CCN(C(=O)c2ccncc2)CC1 (centres undefined) |
| > 7.30 | Cc1noc(C)c1C(=O)N1CCN(c2c(C(C)Nc3ncnc4[nH]cnc34)cc(Cl)c3cccnc23)CC1 (centres undefined) |
| 6.00 to 6.30 | CC(Nc1ncnc2[nH]cnc12)c1cc(Cl)c2cccnc2c1N1CCC(F)(F)CC1 (centres undefined) |
| > 7.30 | CC(Nc1ncnc2[nH]cnc12)c1cc(Cl)c2cccnc2c1N1CCN(C2CCC2)CC1 (centres undefined) |
| > 7.30 | CC(Nc1ncnc2[nH]cnc12)c1cc(Cl)c2cccnc2c1N1CCN(C(=O)C2CCC2)CC1 (centres undefined) |
| > 7.30 and 7.00 to 7.30 | COC1CCN(c2c(C(C)Nc3ncnc4[nH]cnc34)cc(Cl)c3cccnc23)C1 (centres undefined) |
| > 7.30 | COCC(=O)N1CCN(c2c(C(C)Nc3ncnc4[nH]cnc34)cc(Cl)c3cccnc23)CC1 (centres undefined) |
| 6.30 to 6.60 | CC(Nc1ncnc2[nH]cnc12)c1ccc2cccnc2c1-c1cccc(F)c1 (centres undefined) |
